# Assay results as given in PubChem BioAssay (NCI).
#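 Growth conditions: 96-well plates. Treatment: test compound, 48 hours, 5 concentrations. Analysis: linear interpolation between bracketing concentrations; unreached endpoints set to highest concentration. GI50 = concentration required for 50% inhibition of growth. TGI: total growth inhibition.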
# Legend:
# Experiment in all cases: NCI-60 cell line screen, 48 h
# MDA-MB-435 = system: MDA-MB-435
# M14 melanoma = system: M14 melanoma
# HCT-15 colon = system: HCT-15 colon
# A498 renal = system: A498 renal
# SK-MEL-5 melanoma = system: SK-MEL-5 melanoma
# KM12 colon = system: KM12 colon
# BT-549 breast = system: BT-549 breast
# DU-145 prostate = system: DU-145 prostate
# RPMI-8226 leukemia = system: RPMI-8226 leukemia
# MOLT-4 leukemia = system: MOLT-4 leukemia
# MDA-MB-231 breast = system: MDA-MB-231 breast
# CCRF-CEM leukemia = system: CCRF-CEM leukemia
# SNB-75 CNS = system: SNB-75 CNS
# HOP-62 NSCLC = system: HOP-62 NSCLC
# HOP-92 NSCLC = system: HOP-92 NSCLC
# NCI-H23 lung = system: NCI-H23 lung
# LOX IMVI melanoma = system: LOX IMVI melanoma
# U251 CNS = system: U251 CNS
# SR leukemia = system: SR leukemia
# SW-620 colon = system: SW-620 colon
# PC-3 prostate = system: PC-3 prostate
# SNB-19 CNS = system: SNB-19 CNS
# SK-OV-3 ovarian = system: SK-OV-3 ovarian
# K-562 leukemia = system: K-562 leukemia
# OVCAR-8 ovarian = system: OVCAR-8 ovarian
# TK-10 renal = system: TK-10 renal
# ACHN renal = system: ACHN renal
# MALME-3M melanoma = system: MALME-3M melanoma
# UACC-257 melanoma = system: UACC-257 melanoma
# SF-295 CNS = system: SF-295 CNS
# HL-60(TB) leukemia = system: HL-60(TB) leukemia
# SF-268 CNS = system: SF-268 CNS
# HS 578T breast = system: HS 578T breast
# NCI/ADR-RES ovarian = system: NCI/ADR-RES ovarian
# UACC-62 melanoma = system: UACC-62 melanoma
# EKVX NSCLC = system: EKVX NSCLC
# 786-0 renal = system: 786-0 renal
# NCI-H522 lung = system: NCI-H522 lung
# COLO 205 colon = system: COLO 205 colon
# OVCAR-5 ovarian = system: OVCAR-5 ovarian
# OVCAR-4 ovarian = system: OVCAR-4 ovarian
# SF-539 CNS = system: SF-539 CNS
# HT29 colon = system: HT29 colon
# IGROV1 ovarian = system: IGROV1 ovarian
# T-47D breast = system: T-47D breast
# HCC-2998 colon = system: HCC-2998 colon
# OVCAR-3 ovarian = system: OVCAR-3 ovarian
# UO-31 renal = system: UO-31 renal
# SK-MEL-2 melanoma = system: SK-MEL-2 melanoma
# A549 NSCLC = system: A549 NSCLC
# NCI-H460 lung = system: NCI-H460 lung
# HCT-116 colon = system: HCT-116 colon
# NCI-H226 lung = system: NCI-H226 lung
# SK-MEL-28 melanoma = system: SK-MEL-28 melanoma
# RXF 393 renal = system: RXF 393 renal
# SN12C renal = system: SN12C renal
# MCF7 breast = system: MCF7 breast
smiles,measurement,setting,value
O=C(N/N=C/c1c(Cl)cccc1Cl)c1cccnc1Nc1cccc(C(F)(F)F)c1,GI50,MDA-MB-435,3.8 µM
same,TGI,MDA-MB-435,> 100 µM
same,GI50,M14 melanoma,2.72 µM
same,TGI,M14 melanoma,17.1 µM
same,GI50,HCT-15 colon,0.668 µM
same,TGI,HCT-15 colon,> 100 µM
same,GI50,A498 renal,3.13 µM
same,TGI,A498 renal,32.8 µM
same,GI50,SK-MEL-5 melanoma,2.34 µM
same,TGI,SK-MEL-5 melanoma,6.52 µM
same,GI50,KM12 colon,3.24 µM
same,TGI,KM12 colon,57.3 µM
same,GI50,BT-549 breast,3.28 µM
same,TGI,BT-549 breast,55.5 µM
same,GI50,DU-145 prostate,5.35 µM
same,TGI,DU-145 prostate,> 100 µM
same,GI50,RPMI-8226 leukemia,0.717 µM
same,TGI,RPMI-8226 leukemia,4.88 µM
same,GI50,MOLT-4 leukemia,0.942 µM
same,TGI,MOLT-4 leukemia,> 100 µM
same,GI50,MDA-MB-231 breast,5.16 µM
same,TGI,MDA-MB-231 breast,72 µM
same,GI50,CCRF-CEM leukemia,0.323 µM
same,TGI,CCRF-CEM leukemia,10.8 µM
same,GI50,SNB-75 CNS,3.9 µM
same,TGI,SNB-75 CNS,24.8 µM
same,GI50,HOP-62 NSCLC,3.97 µM
same,TGI,HOP-62 NSCLC,20.8 µM
same,GI50,HOP-92 NSCLC,4.01 µM
same,TGI,HOP-92 NSCLC,25.5 µM
same,GI50,NCI-H23 lung,6.35 µM
same,TGI,NCI-H23 lung,> 100 µM
same,GI50,LOX IMVI melanoma,1.83 µM
same,TGI,LOX IMVI melanoma,19 µM
same,GI50,U251 CNS,1.47 µM
same,TGI,U251 CNS,11.6 µM
same,GI50,SR leukemia,2.57 µM
same,TGI,SR leukemia,28.5 µM
same,GI50,SW-620 colon,1.66 µM
same,TGI,SW-620 colon,> 100 µM
same,GI50,PC-3 prostate,2.79 µM
same,TGI,PC-3 prostate,> 100 µM
same,GI50,SNB-19 CNS,4.62 µM
same,TGI,SNB-19 CNS,> 100 µM
same,GI50,SK-OV-3 ovarian,3.77 µM
same,TGI,SK-OV-3 ovarian,30.2 µM
same,GI50,K-562 leukemia,3.57 µM
same,TGI,K-562 leukemia,> 100 µM
same,GI50,OVCAR-8 ovarian,3.49 µM
same,TGI,OVCAR-8 ovarian,> 100 µM
same,GI50,TK-10 renal,4.4 µM
same,TGI,TK-10 renal,79.2 µM
same,GI50,ACHN renal,3.04 µM
same,TGI,ACHN renal,20.8 µM
same,GI50,MALME-3M melanoma,2.95 µM
same,TGI,MALME-3M melanoma,10.8 µM
same,GI50,UACC-257 melanoma,4.31 µM
same,TGI,UACC-257 melanoma,> 100 µM
same,GI50,SF-295 CNS,1.78 µM
same,TGI,SF-295 CNS,14 µM
same,GI50,HL-60(TB) leukemia,3.15 µM
same,TGI,HL-60(TB) leukemia,34.1 µM
same,GI50,SF-268 CNS,2.18 µM
same,TGI,SF-268 CNS,> 100 µM
same,GI50,HS 578T breast,3.59 µM
same,TGI,HS 578T breast,26.2 µM
same,GI50,NCI/ADR-RES ovarian,1.7 µM
same,TGI,NCI/ADR-RES ovarian,44.6 µM
same,GI50,UACC-62 melanoma,2.46 µM
same,TGI,UACC-62 melanoma,9.64 µM
same,GI50,EKVX NSCLC,2.25 µM
same,TGI,EKVX NSCLC,27.4 µM
same,GI50,786-0 renal,3.87 µM
same,TGI,786-0 renal,27.9 µM
same,GI50,NCI-H522 lung,2.55 µM
same,TGI,NCI-H522 lung,15 µM
same,GI50,COLO 205 colon,2.9 µM
same,TGI,COLO 205 colon,37.9 µM
same,GI50,OVCAR-5 ovarian,4.43 µM
same,TGI,OVCAR-5 ovarian,47 µM
same,GI50,OVCAR-4 ovarian,0.941 µM
same,TGI,OVCAR-4 ovarian,48.3 µM
same,GI50,SF-539 CNS,4.28 µM
same,TGI,SF-539 CNS,19.5 µM
same,GI50,HT29 colon,4.7 µM
same,TGI,HT29 colon,> 100 µM
same,GI50,IGROV1 ovarian,2.41 µM
same,TGI,IGROV1 ovarian,54.9 µM
same,GI50,T-47D breast,2.65 µM
same,TGI,T-47D breast,71 µM
same,GI50,HCC-2998 colon,3.86 µM
same,TGI,HCC-2998 colon,> 100 µM
same,GI50,OVCAR-3 ovarian,2.72 µM
same,TGI,OVCAR-3 ovarian,27.5 µM
same,GI50,UO-31 renal,3 µM
same,TGI,UO-31 renal,> 100 µM
same,GI50,SK-MEL-2 melanoma,11.1 µM
same,TGI,SK-MEL-2 melanoma,56.1 µM
same,GI50,A549 NSCLC,4.69 µM
same,TGI,A549 NSCLC,> 100 µM
same,GI50,NCI-H460 lung,2.04 µM
same,TGI,NCI-H460 lung,35.3 µM
same,GI50,HCT-116 colon,1.53 µM
same,TGI,HCT-116 colon,18.1 µM
same,GI50,NCI-H226 lung,2.44 µM
same,TGI,NCI-H226 lung,21.9 µM
same,GI50,SK-MEL-28 melanoma,3.03 µM
same,TGI,SK-MEL-28 melanoma,40.4 µM
same,GI50,RXF 393 renal,6.53 µM
same,TGI,RXF 393 renal,38.6 µM
same,GI50,SN12C renal,2.58 µM
same,TGI,SN12C renal,98.9 µM
same,GI50,MCF7 breast,3.92 µM
same,TGI,MCF7 breast,> 100 µM
